Patent US6525001B1, “Substituted pyrimidine and pyridine herbicides” (Mid-American Commercialization Corporation, priority 1997, dated 2003)

Experiments:
Format in all cases: in vivo
Design in all cases: key: 0 is no effect; 10 is complete control
soybean (Glycine max) = assay: Test B pre-/postemergence
Outline: (§1)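 Compounds in a surfactant-containing, non-phytotoxic solvent blend are applied to freshly planted seed (preemergence) and, concurrently, to seedlings of 2 to 18 cm at 1–4 leaves (postemergence). Plants stay in the greenhouse twelve to sixteen days and are then scored visually from 0 (no effect) to 10 (complete control).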

[1] = test system: purple nutsedge (Cyperus rotundus); assay: Test B pre-/postemergence
Outline: as §1

rape (Brassica napus) = assay: Test B pre-/postemergence
Outline: as §1

[2] = test system: sugar beet (Beta vulgaris); assay: Test B pre-/postemergence
Outline: as §1

[3] = test system: giant foxtail (Setaria faberii); assay: Test B pre-/postemergence
Outline: as §1

[4] = test system: wheat (Triticum aestivum); assay: Test B pre-/postemergence
Outline: as §1

corn (Zea mays) = assay: Test B pre-/postemergence
Outline: as §1

[5] = test system: bedstraw (Galium aparine); assay: Test B pre-/postemergence
Outline: as §1

[6] = test system: crabgrass (Digitaria sanguinalis); assay: Test B pre-/postemergence
Outline: as §1

wild oat (Avena fatua) = assay: Test B pre-/postemergence
Outline: as §1

[7] = test system: velvetleaf (Abutilon theophrasti); assay: Test B pre-/postemergence
Outline: as §1

[8] = test system: bamyardgrass (Echinochloa crus-galli); assay: Test B flood test
Outline: (§2)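 Read-out is a visual response score from 0 (no effect) to 10 (complete control), assigned by comparison with untreated controls. Treatment was applied at the 2-leaf stage, and plants stayed in the greenhouse for twelve to sixteen days before scoring.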

[9] = test system: smallflower flatsedge (Cyperus difformis); assay: Test B flood test
Outline: as §2

[10] = test system: duck salad (Heteranthera limosa); assay: Test B flood test
Outline: as §2

rice (Oryza sativa) = assay: Test B flood test
Outline: as §2

[11] = Rate 62 g/ha, Postemergence (flood test)
[12] = Rate 125 g/ha, Postemergence, flood test
[13] = Rate 250 g/ha, Postemergence (flood test species)
[14] = Rate 500 g/ha, Postemergence (flood test species)

Cc1cnc(-c2ccc(C(F)(F)F)cc2)nc1Cn1cc(I)cn1 [Compound 12]
9: Plant response rating, Rape (rape (Brassica napus); Rate 125 g/ha, Postemergence) | Plant response rating, Rape (rape (Brassica napus); Rate 250 g/ha, Postemergence) | Plant response rating, Rape (rape (Brassica napus); Rate 500 g/ha, Postemergence) | Plant response rating, Sugarbeets ([2]; Rate 500 g/ha, Postemergence) | Plant response rating, Giant foxtail ([3]; Rate 250 g/ha, Preemergence) | Plant response rating, Giant foxtail ([3]; Rate 500 g/ha, Preemergence) | Plant response rating, Bedstraw ([5]; Rate 125 g/ha, Postemergence)
0: Soybean plant response rating (soybean (Glycine max); Rate 62 g/ha, Preemergence) | Plant response rating, Nutsedge ([1]; Rate 62 g/ha, Postemergence) | Nutsedge plant response rating ([1]; Rate 62 g/ha, Preemergence) | Plant response rating, Nutsedge ([1]; Rate 125 g/ha, Postemergence) | Nutsedge plant response rating ([1]; Rate 125 g/ha, Preemergence) | Plant response rating, Nutsedge ([1]; Rate 250 g/ha, Postemergence) | Plant response rating, Nutsedge ([1]; Rate 250 g/ha, Preemergence) | Plant response rating, Nutsedge ([1]; Rate 500 g/ha, Postemergence) | Plant response rating, Nutsedge ([1]; Rate 500 g/ha, Preemergence) | Rape plant response rating (rape (Brassica napus); Rate 62 g/ha, Preemergence) | Wheat plant response rating ([4]; Rate 62 g/ha, Preemergence) | Wheat plant response rating ([4]; Rate 125 g/ha, Preemergence) | Plant response rating, Wheat ([4]; Rate 250 g/ha, Preemergence) | Plant response rating, Wheat ([4]; Rate 500 g/ha, Preemergence) | Corn plant response rating (corn (Zea mays); Rate 62 g/ha, Preemergence) | Corn plant response rating (corn (Zea mays); Rate 125 g/ha, Preemergence) | Plant response rating, Corn (corn (Zea mays); Rate 250 g/ha, Preemergence) | Plant response rating, Ducksalad [10, 11]
5: Plant response rating, Soybean (soybean (Glycine max); Rate 125 g/ha, Postemergence) | Plant response rating, Soybean (soybean (Glycine max); Rate 250 g/ha, Postemergence) | Plant response rating, Soybean (soybean (Glycine max); Rate 500 g/ha, Postemergence) | Rape plant response rating (rape (Brassica napus); Rate 125 g/ha, Preemergence) | Giant foxtail plant response rating ([3]; Rate 62 g/ha, Preemergence) | Plant response rating, Wild oats (wild oat (Avena fatua); Rate 500 g/ha, Postemergence)
2: Soybean plant response rating (soybean (Glycine max); Rate 125 g/ha, Preemergence) | Plant response rating, Giant foxtail ([3]; Rate 62 g/ha, Postemergence) | Plant response rating, Corn (corn (Zea mays); Rate 62 g/ha, Postemergence) | Plant response rating, Corn (corn (Zea mays); Rate 125 g/ha, Postemergence) | Plant response rating, Corn (corn (Zea mays); Rate 500 g/ha, Preemergence) | Bedstraw plant response rating ([5]; Rate 62 g/ha, Preemergence) | Plant response rating, Crabgrass ([6]; Rate 62 g/ha, Postemergence) | Wild oats plant response rating (wild oat (Avena fatua); Rate 125 g/ha, Preemergence) | Plant response rating, Barnyardgrass [8, 11] | Plant response rating, Barnyardgrass [8, 12] | Plant response rating, Ducksalad [10, 14] | Plant response rating, Rice (rice (Oryza sativa); [12])
6: Plant response rating, Rape (rape (Brassica napus); Rate 250 g/ha, Preemergence) | Plant response rating, Rape (rape (Brassica napus); Rate 500 g/ha, Preemergence) | Sugarbeets plant response rating ([2]; Rate 62 g/ha, Preemergence) | Plant response rating, S. Flatsedge [9, 12]
4: Plant response rating, Giant foxtail ([3]; Rate 500 g/ha, Postemergence) | Plant response rating, Wheat ([4]; Rate 500 g/ha, Postemergence) | Bedstraw plant response rating ([5]; Rate 125 g/ha, Preemergence) | Plant response rating, Bedstraw ([5]; Rate 250 g/ha, Preemergence) | Crabgrass plant response rating ([6]; Rate 62 g/ha, Preemergence) | Crabgrass plant response rating ([6]; Rate 125 g/ha, Preemergence) | Plant response rating, Wild oats (wild oat (Avena fatua); Rate 250 g/ha, Postemergence) | Plant response rating, Wild oats (wild oat (Avena fatua); Rate 250 g/ha, Preemergence) | Plant response rating, Wild oats (wild oat (Avena fatua); Rate 500 g/ha, Preemergence) | Velvetleaf plant response rating ([7]; Rate 125 g/ha, Preemergence) | Plant response rating, Velvetleaf ([7]; Rate 250 g/ha, Preemergence) | Plant response rating, Velvetleaf ([7]; Rate 500 g/ha, Preemergence) | Plant response rating, S. Flatsedge [9, 11]
10: Plant response rating, Sugarbeets ([2]; Rate 250 g/ha, Preemergence) | Plant response rating, Sugarbeets ([2]; Rate 500 g/ha, Preemergence) | Plant response rating, Bedstraw ([5]; Rate 250 g/ha, Postemergence) | Plant response rating, Bedstraw ([5]; Rate 500 g/ha, Postemergence) | Plant response rating, Crabgrass ([6]; Rate 500 g/ha, Preemergence)
1: Wild oats plant response rating (wild oat (Avena fatua); Rate 62 g/ha, Preemergence) | Plant response rating, Ducksalad [10, 12] | Plant response rating, Ducksalad [10, 13] | Plant response rating, Rice (rice (Oryza sativa); [11])
8: Plant response rating, Sugarbeets ([2]; Rate 125 g/ha, Postemergence) | Sugarbeets plant response rating ([2]; Rate 125 g/ha, Preemergence) | Plant response rating, Sugarbeets ([2]; Rate 250 g/ha, Postemergence) | Plant response rating, Bedstraw ([5]; Rate 500 g/ha, Preemergence) | Plant response rating, Crabgrass ([6]; Rate 250 g/ha, Preemergence) | Plant response rating, Velvetleaf ([7]; Rate 250 g/ha, Postemergence) | Plant response rating, Velvetleaf ([7]; Rate 500 g/ha, Postemergence) | Plant response rating, S. Flatsedge [9, 13] | Plant response rating, S. Flatsedge [9, 14]
7: Plant response rating, Rape (rape (Brassica napus); Rate 62 g/ha, Postemergence) | Plant response rating, Sugarbeets ([2]; Rate 62 g/ha, Postemergence) | Giant foxtail plant response rating ([3]; Rate 125 g/ha, Preemergence) | Plant response rating, Bedstraw ([5]; Rate 62 g/ha, Postemergence) | Plant response rating, Velvetleaf ([7]; Rate 62 g/ha, Postemergence) | Plant response rating, Velvetleaf ([7]; Rate 125 g/ha, Postemergence)
3: Plant response rating, Soybean (soybean (Glycine max); Rate 62 g/ha, Postemergence) | Plant response rating, Soybean (soybean (Glycine max); Rate 250 g/ha, Preemergence) | Plant response rating, Soybean (soybean (Glycine max); Rate 500 g/ha, Preemergence) | Plant response rating, Giant foxtail ([3]; Rate 125 g/ha, Postemergence) | Plant response rating, Giant foxtail ([3]; Rate 250 g/ha, Postemergence) | Plant response rating, Wheat ([4]; Rate 62 g/ha, Postemergence) | Plant response rating, Wheat ([4]; Rate 125 g/ha, Postemergence) | Plant response rating, Wheat ([4]; Rate 250 g/ha, Postemergence) | Plant response rating, Corn (corn (Zea mays); Rate 250 g/ha, Postemergence) | Plant response rating, Corn (corn (Zea mays); Rate 500 g/ha, Postemergence) | Plant response rating, Crabgrass ([6]; Rate 125 g/ha, Postemergence) | Plant response rating, Crabgrass ([6]; Rate 250 g/ha, Postemergence) | Plant response rating, Crabgrass ([6]; Rate 500 g/ha, Postemergence) | Plant response rating, Wild oats (wild oat (Avena fatua); Rate 62 g/ha, Postemergence) | Plant response rating, Wild oats (wild oat (Avena fatua); Rate 125 g/ha, Postemergence) | Velvetleaf plant response rating ([7]; Rate 62 g/ha, Preemergence) | Plant response rating, Barnyardgrass [8, 13] | Plant response rating, Barnyardgrass [8, 14] | Plant response rating, Rice (rice (Oryza sativa); [13]) | Plant response rating, Rice (rice (Oryza sativa); [14])
